Measurements taken from patent EP1196154B1, “INHIBITION OF RENAL UPTAKE OF RADIOMOLECULES WITH A COMBINATION OF LYSINE AND ARGININE” (MALLINCKRODT, INC., priority 1999, dated 2001).
Where “and” joins values, the source holds several entries; their conditions need not be identical. Equal entries are not always repeated.

Tests used:
kidneys [1] = conditions: Bernard et al.; cited from earlier work
kidneys [2] = test: Renal uptake of [^111In-DTPA-D-Phe^1]octreotide in rats with amino acid administration; format: in vivo; conditions: for inhibition at 400 mg/kg: Rattus norvegicus
Procedure: Furthermore, it has been described by De Jong et al. in J. Nucl. Med 37(8): 1388-1392 (1996) that uptake in the rat kidneys of the [^111In-DTPA-D-Phe^1]octreotide can be inhibited by 50% by intravenous administration of the amino acid L-lysine alone (400 mg/kg). In a further article by Bernard et al. in J. Nucl.
L-arginine alone gave a reduction of 20-30% at an equimolar dose. In human studies 15, 21 and 40% reduction of kidney uptake of [^111In-DTPA-D-Phe^1]octreotide was reached using a dose of 25, 50 and 75 g L-lysine, respectively. […] Hyperkalemia may result in acute and life-threatening cardiotoxicity.

[3] = Osmolarity of infusion fluids; format: physicochemical; conditions: infusion fluid as prepared
[4] = Vomiting and symptoms in patients during amino acid infusion; format: in vivo, humans
Procedure: 26 patients received 1 to 5 therapeutic doses of 1-10 GBq ^90Y-DOTA,Tyr^3-octreotide, with concomitant infusion of a 2030 mL cocktail of various amino acids in 4 hours, starting 30 min. before the administration of the radiopharmaceutical (see MATERIALS, paragraph B. for exact details). In 11 of these 26 patients (42%), [being 20 of 84 treatments (24%)] one or more episodes of vomiting occurred, up to 30 episodes of severe vomiting per treatment.
In one of these 11 patients the vomiting was so severe during the 2 treatments with the above described regimen, that it was decided to use an infusion with 50 g of L-lysine instead of the infusion with the cocktail of various amino acids concomitant with their 3rd and 4th therapy with ^90Y-DOTA,Tyr^3-octreotide.
8 patients received multiple therapeutic doses of 7-11 GBq ^111In-pentetreotide. All received once a concomitant infusion of a 2030 mL cocktail of various amino acids in 4 hours, starting 30 min. before the administration of the radiopharmaceutical (see MATERIALS, paragraph B. for exact details). In 4 of these 8 patients (50%) vomiting occurred.
In these same 8 patients only 3 episodes […] of vomiting occurred during 22 treatments with 7-11 GBq ^111In-pentetreotide while they received 25 or 50 grams of L-lysine in 500 to 2000 mL (see MATERIALS, paragraph C. for exact details) over 4 hours, starting 30 min. before administration of the radiopharmaceutical, as concomitant infusions.
In an experiment of the invention 11 patients received an infusion over 4 hours of a solution containing 25 g L-lysine and 25 g L-arginine in 1000 mL (Lys/Arg; see MATERIALS, paragraph A. for exact formulation). Thirty min. after the start of the infusion they received a diagnostic dose of 220 MBq ^111Inpentetreotide. Ten patients had no symptoms during the infusion, in particular no vomiting. […] During the Lys/Arg infusion they vomited twice.
Five patients received the Lys/Arg infusion in the same manner as described above, but they received a therapeutic dose of 1850 MBq [^177Lu-DOTA,Tyr^3]octreotate, 30 min. after the start of the Lys/Arg infusion. None of these 5 patients had any symptoms at all, in particular no vomiting.
Until now the Lys/Arg infusion, 1000 mL in 4 hours concomitant with therapeutic doses of radioactive labelled peptides, has been administered to more than 30 patients, in total more than 80 occasions. Vomiting occurs in less than 5% of the occasions, and if it occurs it is most probably due to other causes.

[5] = Serum potassium level in patients during amino acid infusion; format: in vivo, humans
Procedure: In an experiment of the invention 11 patients received an infusion over 4 hours of a solution containing 25 g L-lysine and 25 g L-arginine in 1000 mL (Lys/Arg; see MATERIALS, paragraph A. for exact formulation). The potassium level of these patients was measured in serum at t=0 hours and after 0.5, 1, 2, 4 and 5 hours.
As a control 6 patients received 75 g L-lysine in 1500 mL during 4 hours (see MATERIALS, paragraph C. for exact formulation).

kidneys [6] = test: Kidney uptake of ^111In-pentetreotide in patients with amino acid infusion (planar scintigraphy and dosimetry); format: in vivo, humans; conditions: for reduction of kidney uptake of [^111In-DTPA-D-Phe^1]octreotide: human studies
Procedure: A 1000 mL infusion containing 25 g L-lysine and 25 g L-arginine (Lys/Arg; see MATERIALS, paragraph A. for exact formulation) was administered intravenously to patients during 4 hours, starting 30 minutes prior to administration of the radioligand. One radioligand was [^111In-DTPA-D-Phe^1]octreotide (^111In-pentetreotide, OctreoScan®, Mallinckrodt Medical, Petten, The Netherlands) in a diagnostic amount of 220 MBq (9 patients). Each patient was also investigated on a separate occasion with 220 MBq ^111In-pentetreotide, but without any infusion. The other radioligand was [^177Lu-DOTA,Tyr^3]octreotate in a therapeutic amount of 1850 MBq (5 patients). Each patient was also investigated on a separate occasion with 1850 MBq [^177Lu-DOTA,Tyr^3]-octreotate, but without any infusion. The control experiment (5 patients) consisted of infusion of 1000 mL neutral infusion fluid without the amino acids (NaCl 0.45% plus Glucose 2.5%)over 4 hours, starting 30 min. prior to the injection of 220 MBq ^111In-pentetreotide.
24 Hours post infusion the uptake of the radioligand in the kidneys, spleen and liver was measured using planar scintigraphy and dosimetry, and for each patient the ratio between uptake in these organs during infusion with Lys/Arg and without Lys/Arg was calculated (Figures 1, 2 and 3).
At least 5 patients received one of the following amino acid preparations: • 1. AA (2030 mL cocktail of various amino acids; see MATERIALS, paragraph B, for the source and details) • 2. 25 g L-lysine in 500 mL (see MATERIALS, paragraph C, for exact formulation) • 3. 50 g lysine in 2000 mL (see MATERIALS, paragraph C, for exact formulation) • 4. 75 g lysine in 1500 mL (see MATERIALS, paragraph C, for exact formulation) • 5. 25 g L-lysine and 25 g L-arginine in 1000 mL (invention), (Lys/Arg; see MATERIALS, paragraph A. for exact formulation).
The preparations were given intravenously over 4 hours starting 30 minutes before treatment with the radioligand started. The radioligand was ^111Inpentetreotide, either in a diagnostic amount of 220 MBq, or in a therapeutic amount, 7 - 11 GBq. Each patient was his or her own control. The control consisted of treatment with the radioligand but without an amino acid preparation.
At 24 and 48 hours post infusion the ratio between tissue uptake in the left kidney in patients receiving an amino acid composition and the controls was determined by planar scintigraphy and dosimetry.

NCCCC[C@@H](N)C(=O)O [D-lysine]
reducing the rat renal uptake of [^111In-DTPA-D-Phe^1]octreotide and ^90Y-DOTA,Tyr^3-octreotide (kidneys [1]): capable of reducing | inhibition at 400 mg/kg (kidneys [2]): 50%

N=C(N)NCCC[C@H](N)C(=O)O [L-arginine]
reduction of renal uptake of [^111In-DTPA-D-Phe^1]octreotide in rats (kidneys [2]; alone, at an equimolar dose (to lysine 400 mg/kg)): 20-30%

NCCCC[C@H](N)C(=O)O [L-lysine]
osmolarity [3]: ca. 400 mosmol/L | episodes of vomiting during treatments ([4]; 25 or 50 grams in 500 to 2000 mL over 4 hours, 7-11 GBq ^111In-pentetreotide, 3 episodes during 22 treatments, 8 patients): 9% | tolerability / toxicity ([4]; human studies, doses of 25 and 50 g): well tolerated without any toxicity noted | vomiting (conclusion from EXAMPLES 4, 5 and 6) ([4]; infusion over 4 hours): seldomly observed | episodes of vomiting ([4]; one patient, 50 g, 3rd therapy with ^90Y-DOTA,Tyr^3-octreotide): one | vomiting ([4]; one patient, 50 g, 4th therapy with ^90Y-DOTA,Tyr^3-octreotide): no vomiting at all | hyperkalemia ([5]; 75 g L-lysine (Table 2), 25 g L-lysine plus 25 g L-arginine (Table 1)): severe hyperkalemia | patients with a maximum potassium level above the critical value of 6.0 mmol/L ([5]; 75 g in 1500 mL): 3 out of 6 | maximum potassium (K) level in serum ([5]; 75 g in 1500 mL over 4 hours, single patients 12-17): 5.2 mmol/L and 6.8 mmol/L and 6.7 mmol/L and 5.4 mmol/L and 5.0 mmol/L and 6.3 mmol/L | patients with severe hyperkalemia ([5]; humans, total dose of 75 g): 50% | inhibition at 400 mg/kg (kidneys [2]): 50% | [^111In-DTPA-D-Phe^1]octreotide uptake reduction in the left kidney, rank among amino acid preparations (Figure 4) (kidneys [6]; 24 and 48 hours post infusion, 75 g L-lysine, 25 g L-lysine plus 25 g L-arginine): highest uptake reduction | reduction of kidney uptake of [^111In-DTPA-D-Phe^1]octreotide (kidneys [6]; dose of 25 g): 15% | reduction of kidney uptake of [^111In-DTPA-D-Phe^1]octreotide (kidneys [6]; dose of 50 g): 21% | reduction of kidney uptake of [^111In-DTPA-D-Phe^1]octreotide (kidneys [6]; dose of 75 g): 40%

Lys/Arg
occasions on which vomiting occurs ([4]; human, in vivo): less than 5% | patients who suffered from vomiting ([4]; human, in vivo): none | tolerability on 4 later occasions in the same patient ([4]; human, in vivo): without any problems | treatments in which vomiting occurred ([4]; human, in vivo): 8% | patients having a maximum potassium value of 6.0 mmol/L ([5]; human, in vivo): one out of eleven
